Values joined by “and” are separate entries in the source; they are usually repeats but may differ in a detail not shown here. Equal entries are not always repeated. Where two headings read alike, the source gives them in different places.
What was measured:
GlyT-1 [1] = molecular target: T1, GlyT-1 (Rattus norvegicus, UniProt P28572); experiment: Drug inhibition of [3H]CHIBA-3007 binding to rat brain membranes; conditions: [3H]CHIBA-3007 (1 nM)
T1 construct: the tissues of whole brains or each specific brain region were homogenized; from tissue; host or cells: rat brain (whole brain or dissected regions; male Crl:CD (SD) rats)
T1 sequence (P28572 1-638): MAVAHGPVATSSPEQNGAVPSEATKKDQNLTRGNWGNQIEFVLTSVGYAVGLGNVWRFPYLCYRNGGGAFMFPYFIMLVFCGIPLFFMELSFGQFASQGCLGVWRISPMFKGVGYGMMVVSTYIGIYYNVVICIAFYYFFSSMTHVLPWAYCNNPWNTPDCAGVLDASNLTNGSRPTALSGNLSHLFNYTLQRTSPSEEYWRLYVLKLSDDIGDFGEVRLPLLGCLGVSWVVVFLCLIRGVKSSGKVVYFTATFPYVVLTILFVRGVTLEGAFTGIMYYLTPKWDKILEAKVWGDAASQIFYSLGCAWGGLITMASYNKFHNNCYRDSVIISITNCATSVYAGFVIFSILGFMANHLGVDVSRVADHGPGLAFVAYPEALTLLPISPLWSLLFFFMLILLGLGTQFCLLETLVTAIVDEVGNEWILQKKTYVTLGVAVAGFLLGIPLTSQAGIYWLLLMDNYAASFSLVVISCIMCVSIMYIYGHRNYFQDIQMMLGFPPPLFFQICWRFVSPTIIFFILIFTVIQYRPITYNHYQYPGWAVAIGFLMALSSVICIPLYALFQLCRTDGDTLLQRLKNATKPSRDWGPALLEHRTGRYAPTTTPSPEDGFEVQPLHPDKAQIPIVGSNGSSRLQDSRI
Description: The supernatant was discarded and the pellet was re-suspended, homogenized and centrifuged as above. The membrane pellet was washed and re-suspended in ice-cold HEPES buffer and was then centrifuged three times. The final pellet was re-suspended in 15 volumes of the buffer (120 mM NaCl, 2 mM KCl, 1 mM CaCl2, 1 mM MgCl2 10 mM HEPES, pH 7.5 at room temperature).
The binding reaction was terminated by rapid vacuum filtration onto Whatman GF/B glass filters pretreated with 0.5% polyethyleneimine (Sigma-Aldrich Co.) using a 24-channel cell harvester (Brandell, Gaithersburg, MD). The filters were washed with 5 mL of ice-cold assay buffer 3 times, and placed in vials with 4 mL scintillation cocktail. The radioactivity trapped by the filters was determined using a liquid scintillation counter (Beckman LS-6500; Beckman Coulter K.K., Tokyo, Japan).
(§1) The data are shown as the mean ± standard error of the mean (S.E.M.). The dissociation constant (Kd) and maximal binding (Bmax) values from saturation binding and the IC50 values from binding displacement by each drug were determined using the program GraphPad Prism (GraphPad Software, San Diego, CA). […] Correlation was analyzed by Pearson's Correlation Coefficient (PASW Statistics 19, Tokyo, Japan). Significance was set at p<0.05.

GlyT-1 [2] = conditions: read-out: IC50 for [3H]glycine uptake; cited from earlier work
GlyT-1 [3] = conditions: cited from earlier work
GlyT-1 [4] = molecular target: T1, GlyT-1; experiment: Inhibition of [14C]glycine uptake in rat brain membranes; format: biochemical
Description: The homogenate was centrifuged at 1,000 g for 10 min to remove nuclei and debris, and then the supernatant was centrifuged again at 20,000 g for 20 min (synaptosomal P2 fraction). The pellet was washed and re-suspended in ice-cold 0.32 M sucrose, buffered with 10 mM HEPES (pH 7.4) and centrifuged again at 20,000 g for 20 min (washed P2 fraction). The pellet was re-suspended in 10 volumes of assay buffer with the following composition: 10 mM HEPES buffer (pH 7.4) containing 140 mM NaCl, 5.5 mM KCl, 1.8 mM CaCl2, 0.8 mM MgSO4, 5 mM glucose and 5 mM L-alanine (HB). The protein concentrations were measured by using a DC protein assay kit (Bio-Rad Laboratories Inc., Tokyo, Japan).
Non-specific uptake was estimated in the presence of 30 µM SSR504734. […] The filters were washed by buffer, and the radioactivity trapped by the filters was determined using a liquid scintillation counter as described above.
as §1

GlyT-1 [5] = molecular target: T1, GlyT-1; experiment: Regional distribution of [3H]CHIBA-3007 binding in rat brain; conditions: [3H]CHIBA-3007 1 nM, seven rat brain regions
Description: After sacrificing the rats by decapitation, the brains were rapidly removed from the skulls. Whole brains or seven specific cerebral regions - the cerebral cortex, striatum, hippocampus, thalamus, midbrain, cerebellum and pons - dissected on ice by the method of Glowinski and Iversen were stored at −80°C until use for the assay.
(§2) For the [^3H]CHIBA-3007-binding assay, the tissues of whole brains or each specific brain region were homogenized in 15 volumes (w/v) of 10 mM 4-(2-hydroxyethyl)-1- piperazineethanesulfonic acid (HEPES) at pH 7.4 for 30 s on ice. The homogenate was centrifuged at 40,000 g for 15 min at 4°C. The supernatant was discarded and the pellet was re-suspended, homogenized and centrifuged as above. The membrane pellet was washed and re-suspended in ice-cold HEPES buffer and was then centrifuged three times. The final pellet was re-suspended in 15 volumes of the buffer (120 mM NaCl, 2 mM KCl, 1 mM CaCl2, 1 mM MgCl2 10 mM HEPES, pH 7.5 at room temperature).
Assays of the binding of [^3H]CHIBA-3007 to rat brain membranes were performed. […] The radioactivity trapped by the filters was determined using a liquid scintillation counter (Beckman LS-6500; Beckman Coulter K.K., Tokyo, Japan).

GlyT-1 [6] = molecular target: T1, GlyT-1; experiment: Equilibrium saturation binding of [3H]CHIBA-3007 to rat brain membranes
Description: For saturation-binding isotherms, 6 grade-diluted concentrations of [^3H]CHIBA-3007 (0.3125–10 nM) were used. Specific binding of [^3H]CHIBA-3007 to rat brain membranes was saturable and rapid, and represented >90% of total binding over the concentration range of [^3H]CHIBA-3007 (Figure 2).
Figure 2 Specific binding of [^3H]CHIBA-3007 to rat brain membranes. Rat brain membranes were incubated with various concentrations of [^3H]CHIBA-3007 (0.3125–10 nM) for 120 min at room temperature. Nonspecific binding was estimated in the presence of 10 µM SSR504734. The results are from a typical experiment and values are the average of duplicate determinations. […] TB: total binding, NSB: nonspecific binding, SB: specific binding. The results are means ± S.E.M. of three independent experiments performed in duplicate. […] The data are the mean of three independent experiments performed in duplicate.
as §2
Assays of the binding of [^3H]CHIBA-3007 to rat brain membranes were performed. Aliquots of the rat brain membrane suspension (200 µL) were added in duplicate to a reaction mixture containing [^3H]CHIBA-3007 and the indicated concentrations of test drug in a final volume of 0.5 mL. Non-specific binding was estimated in the presence of 10 µM SSR504734, a potent and selective GlyT-1 inhibitor [34]. [3H]CHIBA-3007 binding was allowed to occur for 120 min at room temperature for the equilibrium saturation and inhibition studies. The binding reaction was terminated by rapid vacuum filtration onto Whatman GF/B glass filters pretreated with 0.5% polyethyleneimine (Sigma-Aldrich Co.) using a 24-channel cell harvester (Brandell, Gaithersburg, MD). The filters were washed with 5 mL of ice-cold assay buffer 3 times, and placed in vials with 4 mL scintillation cocktail. The radioactivity trapped by the filters was determined using a liquid scintillation counter (Beckman LS-6500; Beckman Coulter K.K., Tokyo, Japan).
as §1

GlyT-1 [7] = molecular target: T1, GlyT-1; conditions: cited from earlier work
[8] = 120 min room temperature, mean ± S.E.M., n=3

In the case of `O=C(N[C@@H](c1cccc(-c2cn[nH]c2)c1)[C@H]1CCCCN1)c1nccc(C(F)(F)F)c1Cl` [CHIBA-3008, N-((S)-(3-(1H-pyrazol-4-yl)phenyl)((R)-piperidin-2-yl)methyl)-3-chloro-4-(trifluoromethyl)pyridine-2-carboxamide], the Ki (GlyT-1 [1]; [8]) is given as 0.0022 ± 0.0006 µM and the IC50 (GlyT-1 [2]) is given as 0.0002 µM.

For `O=C(N[C@@H](c1ccccc1)[C@@H]1CCCCN1)c1cccc(C(F)(F)F)c1Cl` [SSR504734], the “pIC50 for inhibiting [3H]glycine uptake” value (GlyT-1 [3]) is given as 6.52, the Ki (GlyT-1 [1]; [8]) is given as 0.0246 ± 0.0008 µM and the IC50 (GlyT-1 [4]) is given as 0.0845 ± 0.0298 µM.

For `Cc1cccc(C)c1C(=O)N[C@@H](c1ccccc1)C1(N(C)C)CCCC1` [GSK931145], the “pIC50 for inhibiting [3H]glycine uptake” value (GlyT-1 [3]) is listed as 7.58.

For `CN(CC[C@@H](Oc1ccc(C(F)(F)F)cc1)c1ccccc1)CC(=O)O` (racemic) [Org24598, (R,S)-(±)N-methyl-N-[(4-trifluoromethyl)phenoxy]-3-phenylpropylglycine], the Ki (GlyT-1 [1]; [8]) was 0.0169 ± 0.0031 µM and the IC50 (GlyT-1 [4]) was 0.653 ± 0.154 µM.

Work on `N[C@@H](COC(c1cccc(F)c1)c1ccccc1OCc1ccccc1)C(=O)O` (stereo partly drawn) [ALX1393, O-[(2-benzyloxyphenyl-3-flurophenyl)methyl]-L-serine] yielded a Ki (GlyT-1 [1]; [8]) of 0.852 ± 0.0564 µM.

With `[3H]C([3H])([3H])N1CCCC[C@@H]1[C@@H](NC(=O)c1nccc(C(F)(F)F)c1Cl)c1ccsc1` [[^3H]CHIBA-3007, [^3H]3-chloro-N-((S)-((R)-1-methylpiperidin-2-yl)(thiophen-3-yl)methyl)-4-(trifluoromethyl)picolinamide] the “Order of specific binding in brain regions” value (GlyT-1 [5]) was “midbrain > pons > thalamus > cerebellum > striatum > hippocampus > cerebral cortex”, the Nonspecific binding (GlyT-1 [6]) was under 10% and the “Time to reach binding equilibrium” value (GlyT-1 [6]; kinetic study, data not shown) was “less than 5 min”. For the same molecule, the “Specific binding as share of total binding” value (GlyT-1 [6]; over the concentration range 0.3125–10 nM) was over 90% and the “Bmax (maximal number of binding sites)” value (GlyT-1 [6]; room temperature, n=3) was 692.8 fmol/mg protein and 692.8±22.8 fmol/mg protein.

With `CNCC(=O)O` [Sarcosine, sarcosine] the Ki (GlyT-1 [1]) was 103 µM, the Ki (GlyT-1 [1]; [8]) was 103 µM and the IC50 (GlyT-1 [4]) was 414 µM.

In the case of `CN(CCC(Oc1ccc(-c2ccccc2)cc1)c1ccc(F)cc1)CC(=O)O` (centres unmarked) [NFPS/ALX5407, N-[3-(4-fluorophenyl)-3-(4-phenyl-phenoxy)propyl]-sarcosine], the “Type of interaction with binding of [3H]SB-733993 and [3H]GSK931145” value (GlyT-1 [7]) is given as “uncompetitive interactions”, the Ki (GlyT-1 [1]; [8]) is given as 0.0041 ± 0.0009 µM and the IC50 (GlyT-1 [4]) is given as 0.0837 ± 0.0303 µM.

In the case of `Cc1cccc(C)c1C(=O)N[C@@H](c1ccccc1)C1(N(C)C)CCCC1` [[^3H]GSK931145], the Kd (GlyT-1 [7]) is listed as 0.001 to 0.002 µM.

In the case of `[3H]C([3H])([3H])N(C)C1([C@@H](NC(=O)c2c(C)cccc2C)c2ccccc2)CCCC1` [[^3H]GSK931145], the “Specific binding as share of total binding” value (GlyT-1 [7]; at concentrations around Kd) is listed as over 90% and the Bmax (GlyT-1 [7]; rat brain) is listed as “around 3000 fmol/mg protein”.

Molecule `CN(CCOc1ccc(-c2ccc3c(c2)OCO3)cc1C(C)(C)C)CC(=O)O` [LY2365109] has a Ki (GlyT-1 [1]; [8]) of 0.0162 ± 0.0049 µM and an IC50 (GlyT-1 [4]) of 1.35 µM.

`O=C(N[C@@H](c1ccsc1)[C@H]1CCCCN1)c1nccc(C(F)(F)F)c1Cl` [Desmethyl-CHIBA-3007, 3-chloro-N-((S)-((R)-piperidin-2-yl)(thiophen-3-yl)methyl)-4-(trifluoromethyl)picolinamide] gave a Ki (GlyT-1 [1]; [8]) of 0.0359 ± 0.0013 µM and an IC50 (GlyT-1 [4]) of 0.187 ± 0.04 µM.

For `COc1ccc2c(c1)CC[C@H](CN(C)CC(=O)O)[C@@H]2c1ccccc1` [Org25935], the “Type of interaction with binding of [3H]SB-733993 and [3H]GSK931145” value (GlyT-1 [7]) is listed as “uncompetitive interactions”.

With `CN1CCCC[C@@H]1[C@@H](NC(=O)c1nccc(C(F)(F)F)c1Cl)c1ccsc1` [[^3H]CHIBA-3007, [^3H]3-chloro-N-((S)-((R)-1-methylpiperidin-2-yl)(thiophen-3-yl)methyl)-4-(trifluoromethyl)picolinamide] the Kd (GlyT-1 [6]; room temperature, 0.3125–10 nM radioligand, n=3, read-out: Kd (apparent equilibrium dissociation constant)) was 0.00161 ± 0.00016 µM.

Reference: PMC3121759 (PLoS ONE, 2011)
